Literature values, collected in US20050048573A1, “PDE5A crystal structure and uses” (Plexxikon, Inc., priority 2003, published 2005).

Target: PDE5 (Bos taurus, UniProt Q28156)
Settings: allosteric sites; read-out: KD of PDE5 for binding cGMP in the allosteric sites

## Nc1nc2c(ncn2[C@@H]2O[C@@H]3COP(=O)(O)O[C@H]3[C@H]2O)c(=O)[nH]1 [cGMP]
  Kd: ~200 nM
